# Experimental data from the SangsterLogP compilation.
row,Structure (SMILES),logP
1,Cc1c(C#N)sc(S(C)(=O)=O)c1-c1ccc(Cl)cc1,3.8
2,CS(=O)c1scc(-c2ccccc2)c1[N+](=O)[O-] (configuration not stated),3.2
3,CCS(=O)c1ccc(C(C)=O)s1 (configuration not stated),1.31
4,CCS(=O)c1sc(C(C)=O)c(C)c1[N+](=O)[O-] (configuration not stated),2.81
5,CS(=O)c1cccs1 (configuration not stated),0.91
6,CCCS(=O)c1sccc1[N+](=O)[O-] (configuration not stated),2.52
7,CCS(=O)c1sc(C(C)=O)c(C)c1C#N (configuration not stated),2.22
8,Cc1sc(S(C)=O)c([N+](=O)[O-])c1C (configuration not stated),2.65
9,CCS(=O)c1sc(C(C)=O)c(N)c1C#N (configuration not stated),1.82
10,CS(=O)c1ccc([N+](=O)[O-])s1 (configuration not stated),1.4
11,CS(=O)c1sccc1Br (configuration not stated),1.71
12,CS(=O)c1ccsc1 (configuration not stated),0.91
13,CS(=O)c1sccc1[N+](=O)[O-] (configuration not stated),1.69
14,CCS(=O)c1sc(C#N)c(C)c1C(C)=O (configuration not stated),2.22
15,CCS(=O)c1sc(C(C)=O)c(Cl)c1C#N (configuration not stated),2.64
16,CCS(=O)c1sccc1[N+](=O)[O-] (configuration not stated),2.06
17,CC(=O)c1sc(S(C)=O)c(-c2ccc(Cl)cc2)c1N (configuration not stated),3.18
18,CC(=O)c1sc(S(C)=O)c(C#N)c1-c1ccc(Cl)cc1 (configuration not stated),3.31
19,CC(=O)c1sc(S(C)=O)c(-c2ccc(Cl)cc2)c1C (configuration not stated),3.82

# Other lines, results leading:
row,logP,Structure (SMILES)
1,2.18,CCCS(=O)c1sc(C#N)cc1C#N (configuration not stated)
2,2.31,CCS(=O)c1sc(Cl)cc1C#N (configuration not stated)
3,2.15,CS(=O)c1sc(C#N)c(Cl)c1C#N (configuration not stated)
4,3.44,CCCCS(=O)c1sc(C#N)c(Cl)c1C#N (configuration not stated)
5,0.96,CS(=O)c1sccc1C#N (configuration not stated)
6,2.27,CCOC(=O)c1cc(C#N)c(S(C)=O)s1 (configuration not stated)
7,1.31,CS(=O)c1sc(C#N)cc1C#N (configuration not stated)
8,2.35,CCS(=O)c1sc(C#N)c(OC)c1C#N (configuration not stated)
9,2.19,Cc1csc(S(C)=O)c1[N+](=O)[O-] (configuration not stated)
10,1.78,CCS(=O)c1sc(C#N)cc1C#N (configuration not stated)
11,2.64,CCCCS(=O)c1sc(C#N)cc1C#N (configuration not stated)
12,2.95,CCCS(=O)c1sc(C#N)c(Cl)c1C#N (configuration not stated)
13,2.02,COc1c(C#N)sc(S(C)=O)c1C#N (configuration not stated)
